Assay results reported in patent US20110040086A1, “Novel Beta-Lactam Antibiotics, Methods for Their Production, and Their Use” (DRITTE PATENTPORTFOLIO BETEILIGUNGSGESELLSCHAFT MB, priority 2007, published 2011).

Key:
[1] = tested on: Bacillus megaterium SBUG 1152; experiment: agar diffusion test (Test System 1, antimicrobial effect); type: cell-based
Procedure: (§1) Test System 1 (Antimicrobial Effect)
(§2) The test germs Escherichia coli SBUG 1135 and Bacillus megaterium SBUG 1152 are drawn overnight (17 hours at 37° C.) in 5 ml nutrient medium II. The incubation is performed in a shaking incubator (INFORS AG CH 4103, Bottmingen, Switzerland) at a shaking frequency of 180 rpm.
(§3) After 17 h incubation time, Escherichia coli has reached a cell density of ca. 2.4×10^10 cells/ml and Bacillus megaterium a cell density of ca. 2.1×10^8 cells/ml.
(§4) The seeding of bacteria in agar is selected so that, dense, but not confluent individual colonies develop after the incubation.
Bacillus megaterium: 0.1 ml of non-diluted overnight culture (ÜN) in 10 ml nutrient agar corresponds to a cell count of 10^6.
(§5) The inoculated nutrient agar is set in sterile Petri dishes and left standing for a few minutes for drying.
(§6) The test substances are deposited in stepped quantities (10 μg, 50 μg, 100 μg) onto active ingredient carriers (sensi-discs). For this purpose, the test substances are dissolved in methanol or A. dest. according to their solubility. Each inoculated plate is fitted with 3 test sheets.
(§7) After a 20-hour incubation time at 37° C., the zones of inhibition around the individual test sheets could be measured. The diameter of the zone of inhibition is specified in mm.

B. subtilis AWD 166 = experiment: agar diffusion test (antimicrobial effect); type: cell-based, Bacillus subtilis
Procedure: as §4, §5, §6, §7

[2] = tested on: Escherichia coli SBUG 1135; experiment: agar diffusion test (Test System 1, antimicrobial effect); type: cell-based; parameters: key: r = resistant (no detectable zone of inhibition)
Procedure: as §1, §2, §3, §4
Escherichia coli: the ÜN is diluted 1:100 with physiological saline solution, of which 0.1 ml is converted into 10 ml nutrient agar. That corresponds to a cell count of 10^6.
as §5, §6, §7

[3] = tested on: Enterococcus faecalis 769; experiment: agar diffusion test (Test System II, multi-resistant germs); type: cell-based; parameters: key: r = resistant (no detectable zone of inhibition)
Procedure: as §6
(§8) Test System II (Effect Against Multi-Resistant Germs)
(§9) For this purpose, bacteria is cultivated on Müller-Hinton-Agar II plates.
(§10) With 1-1.5 ml physiological saline solution, a bacteria suspension of McFarland 0.5 (corresponds to a bacteria density of 150×10^6 germs) is produced. Then, with a sterile glass rod, a small drop of bacteria suspension is placed on the Müller-Hinton-Agar plate and coated in three layers (vertical, horizontal, and transverse). Thereafter, the sensi-discs with the novel semi-synthetic test substances are placed on top. The fitted plates are incubated for 18-20 hours at 37° C. After incubation, the diameters of the zones of inhibition are read as a measure for the antimicrobial activity of the novel semi-synthetic test substances.

[4] = tested on: Staphylococcus aureus 315; experiment: as above; type: cell-based; parameters: key: r = resistant (no detectable zone of inhibition)
Procedure: as §6, §8, §9, §10

E. faecalis 945 = experiment: as above; type: cell-based, Enterococcus faecalis; parameters: key: r = resistant (no detectable zone of inhibition)
Procedure: as §6, §8, §9, §10

S. aureus 33490 = experiment: as above; type: cell-based, Staphylococcus aureus; parameters: key: r = resistant (no detectable zone of inhibition)
Procedure: as §6, §8, §9, §10

S. aureus 34289 = experiment: as above; type: cell-based, Staphylococcus aureus; parameters: key: r = resistant (no detectable zone of inhibition)
Procedure: as §6, §8, §9, §10

S. aureus 36881 = experiment: as above; type: cell-based, Staphylococcus aureus; parameters: key: r = resistant (no detectable zone of inhibition)
Procedure: as §6, §8, §9, §10

S. aureus 39105 = experiment: as above; type: cell-based, Staphylococcus aureus; parameters: key: r = resistant (no detectable zone of inhibition)
Procedure: as §6, §8, §9, §10

S. aureus 520 = experiment: as above; type: cell-based, Staphylococcus aureus; parameters: key: r = resistant (no detectable zone of inhibition)
Procedure: as §6, §8, §9, §10

S. aureus 526 = experiment: as above; type: cell-based, Staphylococcus aureus; parameters: key: r = resistant (no detectable zone of inhibition)
Procedure: as §6, §8, §9, §10

[5] = tested on: S. aureus North Germany strain; experiment: as above; type: cell-based, Staphylococcus aureus; parameters: key: r = resistant (no detectable zone of inhibition)
Procedure: as §6, §8, §9, §10

S. aureus 38418 = experiment: as above; type: cell-based, Staphylococcus aureus
Procedure: as §6, §8, §9, §10

S. aureus ATCC 6538 = experiment: as above; type: cell-based, Staphylococcus aureus
Procedure: as §6, §8, §9, §10

S. epidermidis 1068 = experiment: as above; type: cell-based, Staphylococcus epidermidis; parameters: key: r = resistant (no detectable zone of inhibition)
Procedure: as §6, §8, §9, §10

S. epidermidis 1071 = experiment: as above; type: cell-based, Staphylococcus epidermidis; parameters: key: r = resistant (no detectable zone of inhibition)
Procedure: as §6, §8, §9, §10

S. epidermidis 563 = experiment: as above; type: cell-based, Staphylococcus epidermidis; parameters: key: r = resistant (no detectable zone of inhibition)
Procedure: as §6, §8, §9, §10

S. epidermidis 847 = experiment: as above; type: cell-based, Staphylococcus epidermidis; parameters: key: r = resistant (no detectable zone of inhibition)
Procedure: as §6, §8, §9, §10

S. epidermidis 125 = experiment: as above; type: cell-based, Staphylococcus epidermidis
Procedure: as §6, §8, §9, §10

COC(=O)C1=C(NC(C(=O)NC2C(=O)N3C(C(=O)O)=C(C)CSC23)c2ccccc2)C(=O)C=CC1=O (stereo not drawn) [1g, 7-[2-(2-methoxycarbonyl-3,6-dioxocyclohexa-1,4-dienylamino)-2-phenyl-acetylamino]-desacetoxycephalosporanic acid]
Diameter of zone of inhibition ([1]; Quantity n 0.029): 20 mm | Diameter of zone of inhibition ([1]; Quantity n 0.14): 30 mm | Diameter of zone of inhibition ([1]; Quantity n 0.29): 34 mm | Diameter of zone of inhibition (B. subtilis AWD 166; Quantity n 0.029): 24 mm | Diameter of zone of inhibition (B. subtilis AWD 166; Quantity n 0.14): 30 mm | Diameter of zone of inhibition (B. subtilis AWD 166; Quantity n 0.29): 32 mm | Diameter of zone of inhibition ([2]; Quantity n 0.029): r | Diameter of zone of inhibition ([2]; Quantity n 0.14): 16 mm | Diameter of zone of inhibition ([2]; Quantity n 0.29): 22 mm | Diameter of zone of inhibition ([3]; Quantity n 0.029): r | Diameter of zone of inhibition ([3]; Quantity n 0.14): r | Diameter of zone of inhibition ([3]; Quantity n 0.29): r | Diameter of zone of inhibition ([4]; Quantity n 0.029): r | Diameter of zone of inhibition ([4]; Quantity n 0.14): r | Diameter of zone of inhibition ([4]; Quantity n 0.29): 12 mm | Diameter of zone of inhibition (E. faecalis 945; Quantity n 0.029): r | Diameter of zone of inhibition (E. faecalis 945; Quantity n 0.14): r | Diameter of zone of inhibition (E. faecalis 945; Quantity n 0.29): r | Diameter of zone of inhibition (S. aureus 33490; Quantity n [μmol] 0.029): r | Diameter of zone of inhibition (S. aureus 33490; Quantity n [μmol] 0.14): 20 mm | Diameter of zone of inhibition (S. aureus 33490; Quantity n [μmol] 0.29): 24 mm | Diameter of zone of inhibition (S. aureus 34289; Quantity n [mol] 0.029): r | Diameter of zone of inhibition (S. aureus 34289; Quantity n [mol] 0.14): r | Diameter of zone of inhibition (S. aureus 34289; Quantity n [mol] 0.29): r | Diameter of zone of inhibition (S. aureus 36881; Quantity n 0.029): r | Diameter of zone of inhibition (S. aureus 36881; Quantity n 0.14): r | Diameter of zone of inhibition (S. aureus 36881; Quantity n 0.29): 12 mm | Diameter of zone of inhibition (S. aureus 39105; Quantity n 0.029): r | Diameter of zone of inhibition (S. aureus 39105; Quantity n 0.14): 10 mm | Diameter of zone of inhibition (S. aureus 39105; Quantity n 0.29): 18 mm | Diameter of zone of inhibition (S. aureus 520; Quantity n [mol] 0.029): r | Diameter of zone of inhibition (S. aureus 520; Quantity n [mol] 0.14): r | Diameter of zone of inhibition (S. aureus 520; Quantity n [mol] 0.29): r | Diameter of zone of inhibition (S. aureus 526; Quantity n 0.029): r | Diameter of zone of inhibition (S. aureus 526; Quantity n 0.14): r | Diameter of zone of inhibition (S. aureus 526; Quantity n 0.29): r | Diameter of zone of inhibition ([5]; Quantity n 0.029): r | Diameter of zone of inhibition ([5]; Quantity n 0.14): 10 mm | Diameter of zone of inhibition ([5]; Quantity n 0.29): 14 mm | Diameter of zone of inhibition (S. aureus 38418; Quantity n [mol] 0.029): 16 mm | Diameter of zone of inhibition (S. aureus 38418; Quantity n [mol] 0.14): 26 mm | Diameter of zone of inhibition (S. aureus 38418; Quantity n [mol] 0.29): 30 mm | Diameter of zone of inhibition (S. aureus ATCC 6538; Quantity n 0.029): 20 mm | Diameter of zone of inhibition (S. aureus ATCC 6538; Quantity n 0.14): 28 mm | Diameter of zone of inhibition (S. aureus ATCC 6538; Quantity n 0.29): 32 mm | Diameter of zone of inhibition (S. epidermidis 1068; Quantity n 0.029): r | Diameter of zone of inhibition (S. epidermidis 1068; Quantity n 0.14): 14 mm | Diameter of zone of inhibition (S. epidermidis 1068; Quantity n 0.29): 18 mm | Diameter of zone of inhibition (S. epidermidis 1071; Quantity n 0.029): r | Diameter of zone of inhibition (S. epidermidis 1071; Quantity n 0.14): 18 mm | Diameter of zone of inhibition (S. epidermidis 1071; Quantity n 0.29): 22 mm | Diameter of zone of inhibition (S. epidermidis 563; Quantity n 0.029): r | Diameter of zone of inhibition (S. epidermidis 563; Quantity n 0.14): 8 mm | Diameter of zone of inhibition (S. epidermidis 563; Quantity n 0.29): 14 mm | Diameter of zone of inhibition (S. epidermidis 847; Quantity n [mol] 0.029): r | Diameter of zone of inhibition (S. epidermidis 847; Quantity n [mol] 0.14): 14 mm | Diameter of zone of inhibition (S. epidermidis 847; Quantity n [mol] 0.29): 18 mm | Diameter of zone of inhibition (S. epidermidis 125; Quantity n 0.029): 14 mm | Diameter of zone of inhibition (S. epidermidis 125; Quantity n 0.14): 24 mm | Diameter of zone of inhibition (S. epidermidis 125; Quantity n 0.29): 28 mm
